The target of test [1] is NT-3 growth factor receptor (Homo sapiens, UniProt Q16288). As to conditions: at 10 µM.
Test [2] concerns the target T1, Serine/threonine-protein kinase 4 (Homo sapiens) (UniProt Q13043).
T1 sequence (whole entry): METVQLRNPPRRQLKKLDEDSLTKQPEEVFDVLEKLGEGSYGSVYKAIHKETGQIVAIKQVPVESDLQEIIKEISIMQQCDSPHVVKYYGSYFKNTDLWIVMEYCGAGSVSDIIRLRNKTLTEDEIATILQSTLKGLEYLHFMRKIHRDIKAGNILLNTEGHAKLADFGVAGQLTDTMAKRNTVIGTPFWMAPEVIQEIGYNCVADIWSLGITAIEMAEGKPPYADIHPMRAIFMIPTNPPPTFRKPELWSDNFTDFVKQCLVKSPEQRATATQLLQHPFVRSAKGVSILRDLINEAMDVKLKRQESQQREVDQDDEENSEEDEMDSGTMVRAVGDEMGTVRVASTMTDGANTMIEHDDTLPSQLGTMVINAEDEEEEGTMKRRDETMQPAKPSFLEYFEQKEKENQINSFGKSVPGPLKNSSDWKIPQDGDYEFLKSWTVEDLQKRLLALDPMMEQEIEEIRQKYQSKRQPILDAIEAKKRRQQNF
Put plainly: Selectivity interaction (KinomeScan (DiscoverX)) EUB0000695a STK4. The settings on record: at 100 nM.

Test [3] addresses Mitogen-activated protein kinase 11 (Homo sapiens) (UniProt Q15759). Put plainly: Selectivity interaction (KinomeScan (DiscoverX)) EUB0000607a MAPK11. As to conditions: at 10 µM.
The target of test [4] is Angiopoietin-1 receptor (Homo sapiens) (UniProt Q02763). Put plainly: Selectivity interaction (Kinase screening (Nanosyn)) EUB0000604a TEK.
Test [5] deals with T2, Serine/threonine-protein kinase D2 (Homo sapiens) (UniProt Q9BZL6).
T2 sequence (whole entry): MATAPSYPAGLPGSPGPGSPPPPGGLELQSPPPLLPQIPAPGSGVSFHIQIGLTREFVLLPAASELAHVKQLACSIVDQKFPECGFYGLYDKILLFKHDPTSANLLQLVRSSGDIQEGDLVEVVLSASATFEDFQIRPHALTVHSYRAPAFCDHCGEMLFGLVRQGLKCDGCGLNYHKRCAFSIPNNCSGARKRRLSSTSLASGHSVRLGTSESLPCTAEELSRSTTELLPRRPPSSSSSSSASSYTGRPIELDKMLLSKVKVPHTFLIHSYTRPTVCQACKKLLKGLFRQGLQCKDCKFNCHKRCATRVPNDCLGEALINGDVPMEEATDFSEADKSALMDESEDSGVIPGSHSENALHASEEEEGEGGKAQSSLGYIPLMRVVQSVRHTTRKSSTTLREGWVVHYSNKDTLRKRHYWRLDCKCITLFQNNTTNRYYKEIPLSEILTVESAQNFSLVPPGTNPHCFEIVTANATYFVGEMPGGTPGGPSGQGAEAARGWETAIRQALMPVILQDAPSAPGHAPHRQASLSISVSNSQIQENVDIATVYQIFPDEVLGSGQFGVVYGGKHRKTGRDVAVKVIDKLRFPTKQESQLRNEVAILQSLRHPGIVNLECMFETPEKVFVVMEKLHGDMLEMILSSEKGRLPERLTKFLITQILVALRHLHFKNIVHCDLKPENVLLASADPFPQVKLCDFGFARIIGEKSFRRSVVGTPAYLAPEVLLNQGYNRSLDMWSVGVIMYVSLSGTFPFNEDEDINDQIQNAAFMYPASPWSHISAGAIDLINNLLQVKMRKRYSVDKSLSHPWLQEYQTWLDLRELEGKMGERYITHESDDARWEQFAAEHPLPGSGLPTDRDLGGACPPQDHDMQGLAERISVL
The test is described as follows: Selectivity interaction (ActivX KiNativ screen (kinase selectivity in THP-1 cell lysates)) EUB0000639a PRKD2. It is filed as subcellular. The settings on record: lysate, at 0.01 µM.

Test [6] addresses Non-receptor tyrosine-protein kinase TYK2 (Homo sapiens, UniProt P29597). Put plainly: Selectivity interaction (ActivX KiNativ screen (kinase selectivity in THP-1 cell lysates)) EUB0000639a TYK2. Type of test: subcellular. The settings on record: lysate, at 5 µM.
The target of test [7] is G protein-coupled receptor kinase 4 (Homo sapiens) (UniProt P32298). The test is described as follows: Selectivity interaction (ProQinase) EUB0000171b GRK4.
For test [8], the target named is T3, Phosphatidylinositol 5-phosphate 4-kinase type-2 beta (Homo sapiens) (UniProt P78356).
T3 sequence (whole entry): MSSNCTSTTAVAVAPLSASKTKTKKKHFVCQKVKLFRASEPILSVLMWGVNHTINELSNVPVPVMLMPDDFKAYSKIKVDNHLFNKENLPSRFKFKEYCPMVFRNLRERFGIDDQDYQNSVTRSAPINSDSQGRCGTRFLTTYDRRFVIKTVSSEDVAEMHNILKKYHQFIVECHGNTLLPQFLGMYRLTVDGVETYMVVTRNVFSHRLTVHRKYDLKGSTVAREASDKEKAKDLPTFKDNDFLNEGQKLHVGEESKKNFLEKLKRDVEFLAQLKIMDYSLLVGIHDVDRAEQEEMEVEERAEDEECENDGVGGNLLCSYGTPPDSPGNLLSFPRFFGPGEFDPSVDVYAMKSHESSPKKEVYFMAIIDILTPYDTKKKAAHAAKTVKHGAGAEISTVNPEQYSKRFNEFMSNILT
The test is described as follows: Selectivity interaction (KinomeScan (DiscoverX)) EUB0001049a PIP4K2B. As to conditions: at 1 µM.

In test [9] the target is Fibroblast growth factor receptor 4 (Homo sapiens, UniProt P22455). Put plainly: Selectivity interaction (KinomeScan (DiscoverX)) EUB0001049a FGFR4. The settings on record: at 1 µM.
A further test concerns the target Adenosine receptor A2a (Homo sapiens, UniProt P29274). Put plainly: Selectivity interaction (Adenosine 2A receptor binding assay, human recombinant ) EUB0000877a ADORA2A.
Test [10] has as its target Phosphatidylinositol 4-phosphate 3-kinase C2 domain-containing subunit beta (Homo sapiens) (UniProt O00750). Put plainly: Selectivity interaction (KinomeScan (DiscoverX)) EUB0000618a PIK3C2B. The settings on record: at 10 µM.
In test [11] the target is Activin receptor type-2A (Homo sapiens) (UniProt P27037). The test is described as follows: Selectivity interaction (KinomeScan (DiscoverX)) EUB0000092b ACVR2A. The settings on record: at 10 µM.
Test [12] concerns the target Dual specificity mitogen-activated protein kinase kinase 2 (Homo sapiens) (UniProt P36507). Put plainly: Selectivity interaction (KinomeScan (DiscoverX)) EUB0000092b MAP2K2. As to conditions: at 10 µM.
Test [13] concerns the target 1-phosphatidylinositol 3-phosphate 5-kinase (Homo sapiens) (UniProt Q9Y2I7). The test is described as follows: Selectivity interaction (KinomeScan (DiscoverX)) EUB0001079a PIKFYVE. As to conditions: at 1 µM.
Test [14] addresses Death-associated protein kinase 3 (Homo sapiens) (UniProt O43293). The test is described as follows: Selectivity interaction (KinomeScan (DiscoverX)) EUB0000229b DAPK3. The settings on record: at 10 µM.
Test [15] has as its target Interleukin-1 receptor-associated kinase 1 (Homo sapiens) (UniProt P51617). The test is described as follows: Selectivity interaction (Kinase panel (KiNativ target engagement assay in Jurkat cells)) EUB0001635a IRAK1. It is filed as cell-based. The settings on record: Selectivity number of off-targets 0.0, Selectivity number of targets 233.0, Source Knowledge https://www.sciencedirect.com/science/article/pii/S2451945619300674?via%3Dihub, at 1 µM.

Structures are written as SMILES. A value given as a limit tells only on which side of the number the result lay.

One may read the IC50 as the concentration that gives 50% inhibition.

G protein-coupled receptor kinase 4 (Homo sapiens), sequence (P32298 whole entry, looked up): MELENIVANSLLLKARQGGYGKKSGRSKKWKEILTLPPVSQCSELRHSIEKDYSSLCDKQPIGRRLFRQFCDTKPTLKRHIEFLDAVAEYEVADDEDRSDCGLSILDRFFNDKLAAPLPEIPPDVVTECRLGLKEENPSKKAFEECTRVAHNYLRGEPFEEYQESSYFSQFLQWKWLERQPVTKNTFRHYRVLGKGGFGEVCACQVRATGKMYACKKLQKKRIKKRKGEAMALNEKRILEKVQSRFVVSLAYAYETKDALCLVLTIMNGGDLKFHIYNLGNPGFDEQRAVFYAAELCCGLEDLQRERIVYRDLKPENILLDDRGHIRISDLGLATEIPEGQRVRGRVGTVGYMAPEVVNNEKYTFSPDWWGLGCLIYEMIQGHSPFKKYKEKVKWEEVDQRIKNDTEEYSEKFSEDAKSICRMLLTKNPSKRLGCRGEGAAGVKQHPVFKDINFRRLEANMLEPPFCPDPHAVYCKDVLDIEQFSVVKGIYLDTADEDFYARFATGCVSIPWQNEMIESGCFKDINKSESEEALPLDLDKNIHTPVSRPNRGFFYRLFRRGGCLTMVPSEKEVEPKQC
Non-receptor tyrosine-protein kinase TYK2, sequence (P29597 whole entry): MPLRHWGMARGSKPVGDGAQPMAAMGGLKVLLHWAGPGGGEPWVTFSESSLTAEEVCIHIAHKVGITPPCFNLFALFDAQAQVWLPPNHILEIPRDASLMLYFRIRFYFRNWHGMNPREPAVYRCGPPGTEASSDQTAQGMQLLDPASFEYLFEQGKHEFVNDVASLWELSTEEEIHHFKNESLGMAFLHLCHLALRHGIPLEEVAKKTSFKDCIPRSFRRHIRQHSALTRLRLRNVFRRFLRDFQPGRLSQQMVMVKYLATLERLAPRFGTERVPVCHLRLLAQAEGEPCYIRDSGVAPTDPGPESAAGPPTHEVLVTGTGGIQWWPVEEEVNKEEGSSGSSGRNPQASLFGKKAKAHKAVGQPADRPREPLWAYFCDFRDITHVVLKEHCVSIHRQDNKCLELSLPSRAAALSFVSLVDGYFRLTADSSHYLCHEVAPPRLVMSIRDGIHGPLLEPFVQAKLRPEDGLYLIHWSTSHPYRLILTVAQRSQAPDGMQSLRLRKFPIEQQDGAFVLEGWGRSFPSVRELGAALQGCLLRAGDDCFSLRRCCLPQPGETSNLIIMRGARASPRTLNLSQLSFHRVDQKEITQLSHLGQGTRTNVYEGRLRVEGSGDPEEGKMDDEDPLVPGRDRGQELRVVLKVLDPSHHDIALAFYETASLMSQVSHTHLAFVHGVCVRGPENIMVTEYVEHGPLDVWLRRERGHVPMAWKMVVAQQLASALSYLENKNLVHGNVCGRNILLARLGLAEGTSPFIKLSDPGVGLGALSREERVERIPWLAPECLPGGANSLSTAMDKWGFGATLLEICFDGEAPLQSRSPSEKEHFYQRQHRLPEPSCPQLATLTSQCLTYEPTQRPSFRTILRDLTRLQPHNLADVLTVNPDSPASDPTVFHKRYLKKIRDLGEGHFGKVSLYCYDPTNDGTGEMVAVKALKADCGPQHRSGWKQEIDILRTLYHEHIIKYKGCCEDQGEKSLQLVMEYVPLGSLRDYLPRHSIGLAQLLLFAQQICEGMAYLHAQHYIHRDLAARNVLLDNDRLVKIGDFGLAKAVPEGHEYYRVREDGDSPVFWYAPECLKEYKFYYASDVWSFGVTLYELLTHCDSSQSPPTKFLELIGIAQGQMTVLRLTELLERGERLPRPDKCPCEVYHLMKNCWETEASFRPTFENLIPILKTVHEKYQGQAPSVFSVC
Dual specificity mitogen-activated protein kinase kinase 2 (Homo sapiens), sequence (P36507 whole entry): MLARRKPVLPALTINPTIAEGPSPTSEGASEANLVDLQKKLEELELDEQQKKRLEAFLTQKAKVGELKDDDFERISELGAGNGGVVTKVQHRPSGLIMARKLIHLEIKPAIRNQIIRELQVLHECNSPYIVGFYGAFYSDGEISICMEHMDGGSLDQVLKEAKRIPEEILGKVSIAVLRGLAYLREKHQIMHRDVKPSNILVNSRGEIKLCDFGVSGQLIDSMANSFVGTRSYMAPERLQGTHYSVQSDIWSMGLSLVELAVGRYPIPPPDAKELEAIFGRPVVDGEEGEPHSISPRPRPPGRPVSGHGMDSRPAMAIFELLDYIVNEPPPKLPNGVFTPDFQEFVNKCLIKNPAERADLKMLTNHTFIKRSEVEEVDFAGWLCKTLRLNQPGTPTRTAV
1-phosphatidylinositol 3-phosphate 5-kinase (Homo sapiens), sequence (Q9Y2I7 whole entry): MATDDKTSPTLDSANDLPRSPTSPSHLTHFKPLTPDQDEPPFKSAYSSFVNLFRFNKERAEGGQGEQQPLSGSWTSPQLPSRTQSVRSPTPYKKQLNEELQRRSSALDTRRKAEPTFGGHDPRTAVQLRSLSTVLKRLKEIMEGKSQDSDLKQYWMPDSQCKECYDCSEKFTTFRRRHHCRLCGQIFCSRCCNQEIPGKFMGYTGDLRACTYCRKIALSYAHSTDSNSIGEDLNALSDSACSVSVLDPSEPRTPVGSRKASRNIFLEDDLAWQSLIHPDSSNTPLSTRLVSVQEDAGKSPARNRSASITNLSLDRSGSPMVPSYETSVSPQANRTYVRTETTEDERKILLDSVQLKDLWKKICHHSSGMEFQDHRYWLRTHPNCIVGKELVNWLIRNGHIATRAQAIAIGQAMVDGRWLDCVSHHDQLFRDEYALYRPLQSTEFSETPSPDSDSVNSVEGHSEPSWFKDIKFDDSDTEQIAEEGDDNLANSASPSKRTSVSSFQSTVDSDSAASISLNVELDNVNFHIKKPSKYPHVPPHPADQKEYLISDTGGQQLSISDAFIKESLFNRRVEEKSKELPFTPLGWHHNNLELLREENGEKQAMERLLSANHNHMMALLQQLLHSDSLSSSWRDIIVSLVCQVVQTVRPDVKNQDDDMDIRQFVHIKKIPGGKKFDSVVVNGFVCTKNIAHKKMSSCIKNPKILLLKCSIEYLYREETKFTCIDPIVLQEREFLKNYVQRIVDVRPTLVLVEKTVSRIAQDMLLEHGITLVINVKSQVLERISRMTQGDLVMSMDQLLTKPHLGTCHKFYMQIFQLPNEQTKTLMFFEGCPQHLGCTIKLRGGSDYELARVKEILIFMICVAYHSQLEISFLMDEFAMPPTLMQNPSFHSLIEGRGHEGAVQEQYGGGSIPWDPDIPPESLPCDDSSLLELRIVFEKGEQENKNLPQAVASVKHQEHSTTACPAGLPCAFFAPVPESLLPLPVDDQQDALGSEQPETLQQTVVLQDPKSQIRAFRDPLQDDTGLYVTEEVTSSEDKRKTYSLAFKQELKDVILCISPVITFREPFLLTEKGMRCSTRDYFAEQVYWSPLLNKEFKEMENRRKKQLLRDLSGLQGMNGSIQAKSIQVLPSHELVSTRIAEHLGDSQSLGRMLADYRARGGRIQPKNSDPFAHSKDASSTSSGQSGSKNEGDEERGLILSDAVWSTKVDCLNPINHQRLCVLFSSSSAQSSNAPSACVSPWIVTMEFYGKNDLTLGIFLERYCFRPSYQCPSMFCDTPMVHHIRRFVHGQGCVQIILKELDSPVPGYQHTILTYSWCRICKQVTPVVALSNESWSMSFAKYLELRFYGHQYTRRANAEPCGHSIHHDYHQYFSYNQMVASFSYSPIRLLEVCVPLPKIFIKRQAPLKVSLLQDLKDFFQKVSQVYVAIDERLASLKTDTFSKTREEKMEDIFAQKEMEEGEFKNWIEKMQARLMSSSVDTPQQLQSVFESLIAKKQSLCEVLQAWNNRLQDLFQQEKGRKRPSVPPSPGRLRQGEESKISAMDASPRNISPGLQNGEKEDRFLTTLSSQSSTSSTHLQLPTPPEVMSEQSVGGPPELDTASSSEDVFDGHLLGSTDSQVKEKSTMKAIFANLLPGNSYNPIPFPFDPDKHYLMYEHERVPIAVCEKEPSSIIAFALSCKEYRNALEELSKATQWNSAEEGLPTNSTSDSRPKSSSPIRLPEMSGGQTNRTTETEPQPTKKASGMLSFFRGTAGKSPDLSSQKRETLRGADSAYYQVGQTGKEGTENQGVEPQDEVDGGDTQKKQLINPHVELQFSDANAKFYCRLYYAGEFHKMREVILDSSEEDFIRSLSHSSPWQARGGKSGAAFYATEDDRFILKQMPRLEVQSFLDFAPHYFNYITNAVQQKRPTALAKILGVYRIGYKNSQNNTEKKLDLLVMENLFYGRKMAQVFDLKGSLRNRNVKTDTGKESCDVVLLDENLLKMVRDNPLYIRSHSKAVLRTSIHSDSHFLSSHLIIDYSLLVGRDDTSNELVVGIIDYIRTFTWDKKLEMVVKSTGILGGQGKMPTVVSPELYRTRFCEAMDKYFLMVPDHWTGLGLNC
NT-3 growth factor receptor, sequence (Q16288 32-839 limits assumed): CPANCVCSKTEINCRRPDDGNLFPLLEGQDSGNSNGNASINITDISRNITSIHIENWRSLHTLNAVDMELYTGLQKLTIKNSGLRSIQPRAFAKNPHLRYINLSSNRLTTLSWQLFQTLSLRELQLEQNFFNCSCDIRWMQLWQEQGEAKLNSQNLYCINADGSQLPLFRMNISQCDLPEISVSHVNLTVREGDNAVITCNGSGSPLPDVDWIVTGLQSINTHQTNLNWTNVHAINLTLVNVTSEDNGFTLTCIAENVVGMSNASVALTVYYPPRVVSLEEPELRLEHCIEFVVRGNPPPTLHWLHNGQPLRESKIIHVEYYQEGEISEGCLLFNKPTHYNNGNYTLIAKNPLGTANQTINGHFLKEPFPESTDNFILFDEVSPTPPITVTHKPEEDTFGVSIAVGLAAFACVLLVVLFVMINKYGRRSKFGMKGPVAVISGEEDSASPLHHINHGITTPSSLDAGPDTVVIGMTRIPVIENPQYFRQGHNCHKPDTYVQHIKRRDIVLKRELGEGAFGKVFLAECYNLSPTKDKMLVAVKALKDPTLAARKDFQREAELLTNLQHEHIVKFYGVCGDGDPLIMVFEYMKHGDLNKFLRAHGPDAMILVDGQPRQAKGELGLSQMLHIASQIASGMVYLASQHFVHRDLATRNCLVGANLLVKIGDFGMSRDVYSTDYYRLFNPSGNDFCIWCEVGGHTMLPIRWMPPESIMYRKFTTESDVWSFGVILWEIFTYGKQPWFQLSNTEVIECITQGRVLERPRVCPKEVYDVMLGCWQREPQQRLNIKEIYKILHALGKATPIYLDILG

In [1], `CCN(CC)CCCCNc1ncc2cc(-c3cc(OC)cc(OC)c3)c(NC(=O)NC(C)(C)C)nc2n1` registered a % of control of 100%.
With `Cc1cc(F)c(C(=O)Nc2cccc(-c3nncn3C(C)C)n2)cc1-n1cnc(C2CC2)c1`, in test [2], the % of control came to 100%.
`CNC(=O)Nc1ccc(-c2nc(N3CC4CCC(C3)O4)c3cnn(C4CCC5(CC4)OCCO5)c3n2)cc1` displayed a % of control in [3] of 100%.
For `Cc1cnc(Nc2ccc(F)cc2Cl)nc1-c1c[nH]c(C(=O)N[C@H](CO)c2cccc(Cl)c2)c1`, the % of inhibition in test [4] came out at 0%.
Take `CC[C@@H]1[C@H](F)C(=O)N[C@@H]1COc1nccc2cc(C(N)=O)c(OC)cc12` [ZIMLOVISERTIB]: the % of inhibition is -7.2% in test [5] and 37.4% in test [6].
As to `C=CC(=O)Nc1cccc(C(=O)Nc2ccc(Nc3cc(-c4[nH]c(SC)nc4C)ccn3)cc2)c1`, the figures for the % of control in test [7] (at 1 µM) and in [7] (at 5 µM) were 101% and 97%, respectively.
Consider `COc1cc(Nc2nc(C)cc(-c3cnn4nc(OC)ccc34)n2)cc(C(F)(F)F)c1`, for which the % of control in test [8] is 96%; in [9], 100%.
For the molecule `CCC(=O)N1CC[C@H](Nc2ncnc3c2CN(c2cnc(OC)c(C(F)(F)F)c2)CC3)C1` [LENIOLISIB], at Adenosine receptor A2a, the IC50 is more than 30 µM.
For `O[C@H]1CC[C@H](Nc2ncc3nc(Nc4c(F)cc(F)cc4F)n([C@H]4CCOC4)c3n2)CC1`, the % of control in test [10] came to 97%.
For the molecule `CCC(=O)N1CCN(c2ccc(-n3c(=O)ccc4cnc5ccc(-c6cnc7ccccc7c6)cc5c43)cc2C(F)(F)F)CC1`, the values for the % of control in [11] and in test [12] were 47% and 100%, respectively.
In test [13], `Nc1cnc(N2CCc3cc(S(=O)(=O)Nc4c(F)cc(Cl)cc4F)cc(N4CCCC4=O)c32)nc1` [TP-020n] showed a % of control of 100%.
As to `COc1cc(N(C)c2ccnc3ccc(C(F)(F)F)cc23)cc(OC)c1OC`, the % binding in [14] was 91%.
`C=CC(=O)Nc1ccc(C(=O)Nc2[nH]nc3c2CN(C(=O)N[C@H](CN(C)C)c2ccccc2)C3(C)C)cc1` had a % of engagement in [15] of 1.3%.
